# Assay results from patent US12337005B2, “Methods of treating thrombosis” (UNIVERSITY OF IOWA RESEARCH FOUNDATION, priority 2020, dated 2025).
# Columns and labels:
# [1] = test system: PI3 kinase-mediated Akt/GSK3β signaling; assay: Western blot of Akt/GSK3β phosphorylation, human platelets; format: cell-based; settings: convulxin- or thrombin-mediated, ML265 50 and 100 μM
# Experimental: Platelet proteins were separated on 4-20% SDS-PAGE (sodium dodecyl sulfate-polyacrylamide gel electrophoresis) gradient gels and electrophoretic transferred to PVDF (polyvinylidene fluoride) membrane by using Bio-Rad western blotting system. For PKM2 dimer and tetramer study 6% native gels are used. Membranes were blocked with 5% BSA or skimmed milk in 10 mM Tris-HCl, 150 mM NaCl, pH 8.0 (TBS) containing 0.05% Tween-20 for one hour at room temperature. Blots were incubated for overnight with primary antibody, followed by horseradish peroxidase-labeled secondary antibody for one hour. Blots were developed using enhanced chemiluminescence and quantified using Image J software from NIH (Bethesda, MD, USA).
# [2] = test system: integrin αIIbβ3; assay: Integrin αIIbβ3 activation (JONA binding), mouse platelets; format: cell-based; settings: convulxin and PAR4-induced
# [3] = test system: male mice; assay: Tail bleeding assay; format: in vivo, mouse; settings: male mice pretreated with ML265
# Experimental: (§1) Initially ML265 dissolved in DMSO was mixed with 200 μl of deionized water and administered intra-peritoneally to the at a dose of 25 and 50-mg/Kg body weight. In vivo thrombosis and tail transection assays were performed 10 minutes after administration of ML265 or vehicle infusion by a person who was blinded to the drug and vehicle infusion.
# Tail-transection bleeding time was measured. Briefly, mice (approximately 8 weeks of age) were anesthetized with 100-mg/kg ketamine and 10-mg/kg xylazine and placed on a heating pad warmed at 37° C., and a 3 mm segment of the tail was amputated with a sharp scalpel blade. The tail was immediately immersed in saline (at 37° C.), and the time taken for the stream of blood to stop for more than 30 seconds was defined as the bleeding time.
# [4] = biological target: T1, PKM2 dimers (Homo sapiens, UniProt P14618); assay: Native Western blot of PKM2 dimer and tetramer in stimulated human platelets; format: cell-based; settings: human platelets stimulated with convulxin (100 ng/ml) or thrombin (0.1 U/mL); vs vehicle
# T1 construct: decreased PKM2 dimers in the human platelets stimulated with convulxin or thrombin; endogenous in cells; host or cells: human platelets from healthy volunteers
# T1 sequence (P14618 2-531 limits assumed): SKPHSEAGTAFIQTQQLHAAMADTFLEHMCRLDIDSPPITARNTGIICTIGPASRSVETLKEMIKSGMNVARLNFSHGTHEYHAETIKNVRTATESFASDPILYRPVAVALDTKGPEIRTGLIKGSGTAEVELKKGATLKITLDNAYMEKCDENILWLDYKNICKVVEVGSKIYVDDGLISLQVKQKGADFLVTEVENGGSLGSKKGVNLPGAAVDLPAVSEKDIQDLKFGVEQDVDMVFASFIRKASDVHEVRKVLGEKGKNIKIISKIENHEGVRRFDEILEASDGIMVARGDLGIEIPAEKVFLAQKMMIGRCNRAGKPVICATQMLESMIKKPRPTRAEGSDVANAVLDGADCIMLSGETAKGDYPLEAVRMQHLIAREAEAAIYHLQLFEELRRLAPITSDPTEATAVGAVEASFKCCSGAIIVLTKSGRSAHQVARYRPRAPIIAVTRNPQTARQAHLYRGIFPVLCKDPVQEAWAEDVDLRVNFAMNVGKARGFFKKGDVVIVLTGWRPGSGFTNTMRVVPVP
# Experimental: To obtain human platelets, blood was collected from healthy volunteers free from antiplatelet medication. Informed consent was taken. Platelets were prepared as described. Briefly, blood was collected in tubes containing anticoagulant citrate dextrose solution A and centrifuged at 180 g for 20 min. After addition of apyrase (0.6 U/ml) to PRP, platelets were sedimented by centrifugation at 800 g for 15 min. Cells were washed in buffer A (20 mM HEPES, 138 mM NaCl, 2.9 mM KCl, 1 mM MgCl2, 0.36 mM NaH2PO4, 1 mM EGTA (ethylene glycol tetraacetic acid), supplemented with 5 mM glucose, pH 6.2). Platelets were finally resuspended in buffer B (pH 7.4), which was the same as buffer ‘A’ but without EGTA and apyrase.
# Platelet proteins were separated on 4-20% SDS-PAGE (sodium dodecyl sulfate-polyacrylamide gel electrophoresis) gradient gels and electrophoretic transferred to PVDF (polyvinylidene fluoride) membrane by using Bio-Rad western blotting system. For PKM2 dimer and tetramer study 6% native gels are used. Membranes were blocked with 5% BSA or skimmed milk in 10 mM Tris-HCl, 150 mM NaCl, pH 8.0 (TBS) containing 0.05% Tween-20 for one hour at room temperature. […] Blots were developed using enhanced chemiluminescence and quantified using Image J software from NIH (Bethesda, MD, USA).
# [5] = test system: human platelets; assay: Lactate measurement, human platelets; format: cell-based; settings: human platelets stimulated with convulxin or thrombin; ML265 pre-treated (50 or 100 μM)
# Experimental: Washed platelets (5×10^8 platelets/mL) in DMEM (5 mM HEPES, 25 mM glucose, 1 mM pyruvate and 2 mM glutamine) were pre-treated with 50 or 100 μM of ML265 or vehicle (DMSO) for 10 mins and stimulated by convulxin (200 ng/ml) for 1 hr. Cells were centrifuged and supernatant was collected. Levels of L-lactate in supernatant were determined using a glycolysis cell based assay kit (Cayman; Item No. 600450) according to the manufacturer's instructions.
# [6] = test system: human platelets; assay: Thromboxane (TxB2) assay, human platelets; format: cell-based; settings: convulxin-stimulated human platelets pre-treated with ML265
# Experimental: The TxB2 assay was done. Briefly, PRP or washed platelets (2×10^8 platelets/mL) was stimulated with convulxin or thrombin for 3 minutes utilizing an aggregometer, and the reaction was stopped by quickly freezing the sample in a dry ice-methanol bath. Before performing the TXB2 measurement assay, samples were thawed and centrifuged at 15,000 g for 3 minutes. The supernatants were diluted 1:50 with assay buffer and levels of TxB2 (a stable metabolite of TxA2) were determined in triplicate using an immunoassay kit (Abcam Thromboxane B2 enzyme-linked immunosorbent assay kit) according to the manufacturer's instructions.
# [7] = test system: mouse platelets; assay: Annexin V-affinity assay, mouse platelets; format: cell-based; settings: increasing concentrations of ML265
# Experimental: Mouse and human washed platelets (1×10^8/ml) were pre-incubated with different concentrations of ML265 ([…]). Washed platelets activated with thrombin (0.5 U/ml)+convulxin (100 ng/ml) were used as a positive control. The samples were added to 1× Annexin V-binding buffer (BD Biosciences). Following this, annexin V-FITC antibody was added to each sample, gently mixed, and incubated at room temperature for 15 minutes in the dark. After incubation, 1× Annexin-binding buffer was added to each tube and analyzed by a Becton Dickinson FACSCalibur flow cytometer.
# [8] = test system: male wild-type mice on C57B16/J background; assay: FeCl3 injury-induced carotid artery thrombosis; format: in vivo, mouse
# Experimental: as §1
# Thrombus formation in the carotid artery after the FeCl3 injury was assessed by intravital microscopy. Briefly, 8-10 weeks old mice were anesthetized using 100-mg/kg ketamine and 10-mg/kg xylazine. Platelets labeled with calcein green (2.5×10^9 platelets per kg) were infused through the retro-orbital plexus. The common carotid artery was carefully exposed and kept moist by super-fusion with warm (˜37° C.) saline. Whatman paper (0.5×1.5 mm) saturated with ferric chloride (5%) solution was applied topically for 1.5 minutes for male and 2 mins for female mice, and thrombus formation in the injured carotid vessel was monitored in real time using a Nikon upright microscope (Plan Fluor 4×/0.2 objective), and thrombus growth overtime was recorded using a high-speed electron-multiplying camera for 40 minutes or until occlusion occurred. The time to form occlusive thrombus was considered as the time required for blood to stop flowing completely for >1 minute. Videos were evaluated off-line using a Nikon computer-assisted image analysis program.
# [9] = test system: human whole blood; assay: Bioflux flow chamber assay, human whole blood on collagen; format: cell-based
# Experimental: In vitro thrombosis assays were performed using BioFlux™ 200 (Fluxion Biosciences, USA) microfluidics flow chamber (Nayak et al., 2018). The channels were coated with Type I collagen (100 μg/ml) for one hour at room temperature and then blocked with 0.5% BSA for 30 minutes. Platelets were isolated from citrated whole blood as described above, washed, labeled with the fluorescent dye (calcein AM; 2 μM) and were reconstituted back with PPP and remaining blood containing leukocytes and RBC. The whole blood pretreated with ML265 or vehicle (DMSO) was perfused over the collagen-coated plate at shear stress 1500 s^−1 for 5 minutes. Experiments were performed in triplicates using whole blood from human and mice. The fluorescently labeled platelets/thrombi on the collagen-coated surface were analyzed using ImageJ software from NIH (Bethesda, MD, USA).
structure (smiles),measurement,setting,value
"Cn1c2cc([S+](C)[O-])sc2c2cnn(Cc3cccc(N)c3)c(=O)c21 (centres unmarked) [ML265, 6-[(3-aminophenyl)methyl]-4,6-dihydro-4-methyl-2-(methylsulfinyl)-5H-thieno[2′,3′:4,5]pyrrolo[2,3-d]pyridazine-5-one]",Akt phosphorylation,[1],down-regulated
same,GSK3β phosphorylation,[1],down-regulated
same,activation of αIIbβ3 (JONA binding),[2],decreased
same,mean time to cessation of bleeding (tail-transection bleeding time) vs vehicle,[3],comparable
same,PKM2 dimers,[4],decreased
same,lactate production,[5],significantly decreased
same,levels of TxB2 (stable metabolite of TxA2),[6],reduced
same,apoptosis in resting platelets (Annexin V binding),[7],does not induce
same,mice that did not occlude,[8]; ML265-pretreated wild-type mice,50%
same,"time to occlusion, a large number of ML265 pre-treated mice (did not occlude)",[8]; control group approximately 20 mins,> 40 min
same,rate of thrombus growth (slope over time),"[8]; male mice pretreated with ML265, 5% FeCl3, vehicle slope 4.862",1.531
same,time to complete vessel occlusion vs vehicle,[8]; male wild-type mice pretreated with ML265,significantly prolonged
same,reduction in the extent of thrombus growth vs vehicle,"[8]; male wild-type mice, ML265 i.p. 10 minutes before 5% FeCl3 injury",~4 fold
same,reduction in the thrombus growth rate vs vehicle control,"[9]; ML265 150 μM, collagen, 1500 s-1",~5 fold
same,reduction in percent of the area covered by platelets vs vehicle control,"[9]; ML265 150 μM, collagen, 1500 s-1, 5 minutes",~5 fold
same,rate of thrombus growth (slope over time),"[9]; ML265 150 μM, vehicle slope 237.3",37.92
same,thrombus formation vs vehicle control,"[9]; ML265 50 or 100 μM, collagen, 1500 s-1, 5 minutes",no significant difference
